# Laboratory results published in ChEMBL document CHEMBL3885881, “DrugMatrix”.
# Organism: Rattus norvegicus
# Assay: DrugMatrix - Regimen: Daily Repeat
# Assay type: toxicity, organism-based, Sprague-Dawley
# Design: regimen Daily Repeat, gender Male, age 6-8 weeks
# Details: in vivo, po, route oral GAVAGE, vehicle .5 % CMC; for TOTAL PROTEIN / ALANINE AMINOTRANSFERASE / ALBUMIN / ALKALINE PHOSPHATASE / ASPARTATE AMINOTRANSFERASE / CARBON DIOXIDE / CHLORIDE / CHOLESTEROL / CREATINE PHOSPHOKINASE / CREATININE / GLUCOSE / LACTATE DEHYDROGENASE / LIPASE / PHOSPHORUS / POTASSIUM / SODIUM / TOTAL BILIRUBIN / BLOOD UREA NITROGEN: tissue Plasma; for ABSOLUTE BASOPHIL / ABSOLUTE EOSINOPHIL / ABSOLUTE LYMPHOCYTE / ABSOLUTE MONOCYTE / ABSOLUTE SEGMENTED NEUTROPHIL / BASOPHIL / EOSINOPHIL / ERYTHROCYTE COUNT / HEMATOCRIT / HEMOGLOBIN / LEUKOCYTE COUNT / LYMPHOCYTE / MEAN CORPUSCULAR HEMOGLOBIN / MEAN CORPUSCULAR HEMOGLOBIN CONCENTRATION / MEAN CORPUSCULAR VOLUME / MONOCYTE / NEUTROPHIL / NUCLEATED RED BLOOD CELLS / PLATELET COUNT: tissue Blood
# [1] = 25 mg/kg, 120 h, dose level Low, time 5 day
# [2] = 1500 mg/kg, 72 h, dose level High, time 3 day
# [3] = 1500 mg/kg, 120 h, dose level High, time 5 day
smiles,measurement,setting,value
COc1cc(/C=C/C(=O)O)ccc1O [FERULATE],TOTAL PROTEIN,"25 mg/kg, 72 h, dose level Low, time 3 day",5.97 G/DL
same,ABSOLUTE BASOPHIL,[1],0 CELLS/uL
same,ABSOLUTE EOSINOPHIL,[1],170 CELLS/uL
same,ABSOLUTE LYMPHOCYTE,[1],14805 CELLS/uL
same,ABSOLUTE MONOCYTE,[1],286 CELLS/uL
same,ABSOLUTE SEGMENTED NEUTROPHIL,[1],1439 CELLS/uL
same,BASOPHIL,[1],0%
same,EOSINOPHIL,[1],1.33%
same,ERYTHROCYTE COUNT,[1],5.63 x10E6/uL
same,HEMATOCRIT,[1],35.7%
same,HEMOGLOBIN,[1],13.7 G/DL
same,LEUKOCYTE COUNT,[1],16.7 x10E3/uL
same,LYMPHOCYTE,[1],87.67%
same,MEAN CORPUSCULAR HEMOGLOBIN,[1],24.43 pg
same,MEAN CORPUSCULAR HEMOGLOBIN CONCENTRATION,[1],38.37 G/DL
same,MEAN CORPUSCULAR VOLUME,[1],63.63 fL
same,MONOCYTE,[1],1.67%
same,NEUTROPHIL,[1],9.33%
same,NUCLEATED RED BLOOD CELLS,[1],0.33 /100WBC
same,PLATELET COUNT,[1],1379.67 x10E3/uL
same,ALANINE AMINOTRANSFERASE,[1],52.67 u/L
same,ALBUMIN,[1],4.27 G/DL
same,ALKALINE PHOSPHATASE,[1],350.33 u/L
same,ASPARTATE AMINOTRANSFERASE,[1],91.33 u/L
same,CARBON DIOXIDE,[1],28 mmol/L
same,CHLORIDE,[1],104.67 MEQ/L
same,CHOLESTEROL,[1],79.67 mg/dL
same,CREATINE PHOSPHOKINASE,[1],317 u/L
same,CREATININE,[1],0.18 mg/dL
same,GLUCOSE,[1],160.67 mg/dL
same,LACTATE DEHYDROGENASE,[1],421.67 u/L
same,LIPASE,[1],9.33 u/L
same,PHOSPHORUS,[1],12.9 mg/dL
same,POTASSIUM,[1],6.65 MEQ/L
same,SODIUM,[1],144.87 MEQ/L
same,TOTAL BILIRUBIN,[1],0.17 mg/dL
same,TOTAL PROTEIN,[1],5.93 G/DL
same,ABSOLUTE BASOPHIL,[2],0 CELLS/uL
same,ABSOLUTE EOSINOPHIL,[2],42 CELLS/uL
same,ABSOLUTE LYMPHOCYTE,[2],12584.67 CELLS/uL
same,ABSOLUTE MONOCYTE,[2],382 CELLS/uL
same,ABSOLUTE SEGMENTED NEUTROPHIL,[2],1124.67 CELLS/uL
same,BASOPHIL,[2],0%
same,EOSINOPHIL,[2],0.33%
same,ERYTHROCYTE COUNT,[2],5.75 x10E6/uL
same,HEMATOCRIT,[2],35.2%
same,HEMOGLOBIN,[2],13.03 G/DL
same,LEUKOCYTE COUNT,[2],14.13 x10E3/uL
same,LYMPHOCYTE,[2],89%
same,MEAN CORPUSCULAR HEMOGLOBIN,[2],22.7 pg
same,MEAN CORPUSCULAR HEMOGLOBIN CONCENTRATION,[2],37.03 G/DL
same,MEAN CORPUSCULAR VOLUME,[2],61.23 fL
same,MONOCYTE,[2],2.67%
same,NEUTROPHIL,[2],8%
same,NUCLEATED RED BLOOD CELLS,[2],0.33 /100WBC
same,PLATELET COUNT,[2],1425.67 x10E3/uL
same,ALANINE AMINOTRANSFERASE,[2],67.67 u/L
same,ALBUMIN,[2],4.13 G/DL
same,ALKALINE PHOSPHATASE,[2],355 u/L
same,ASPARTATE AMINOTRANSFERASE,[2],102.67 u/L
same,BLOOD UREA NITROGEN,[2],13.67 mg/dL
same,CARBON DIOXIDE,[2],25.67 mmol/L
same,CHLORIDE,[2],103.33 MEQ/L
same,CHOLESTEROL,[2],81.67 mg/dL
same,CREATINE PHOSPHOKINASE,[2],489 u/L
same,CREATININE,[2],0.15 mg/dL
same,GLUCOSE,[2],140.67 mg/dL
same,LACTATE DEHYDROGENASE,[2],475.67 u/L
same,LIPASE,[2],10 u/L
same,PHOSPHORUS,[2],10.73 mg/dL
same,POTASSIUM,[2],6.23 MEQ/L
same,SODIUM,[2],143.87 MEQ/L
same,TOTAL BILIRUBIN,[2],0.2 mg/dL
same,TOTAL PROTEIN,[2],5.5 G/DL
same,ABSOLUTE BASOPHIL,[3],0 CELLS/uL
same,ABSOLUTE EOSINOPHIL,[3],97 CELLS/uL
same,ABSOLUTE LYMPHOCYTE,[3],18780.67 CELLS/uL
same,ABSOLUTE MONOCYTE,[3],55.33 CELLS/uL
same,ABSOLUTE SEGMENTED NEUTROPHIL,[3],967 CELLS/uL
same,BASOPHIL,[3],0%
same,EOSINOPHIL,[3],0.33%
same,ERYTHROCYTE COUNT,[3],6.33 x10E6/uL
same,HEMATOCRIT,[3],38.23%
same,HEMOGLOBIN,[3],14.4 G/DL
same,LEUKOCYTE COUNT,[3],19.9 x10E3/uL
same,LYMPHOCYTE,[3],94%
same,MEAN CORPUSCULAR HEMOGLOBIN,[3],22.73 pg
same,MEAN CORPUSCULAR HEMOGLOBIN CONCENTRATION,[3],37.67 G/DL
same,MEAN CORPUSCULAR VOLUME,[3],60.37 fL
same,MONOCYTE,[3],0.33%
same,NEUTROPHIL,[3],5.33%
same,NUCLEATED RED BLOOD CELLS,[3],0.33 /100WBC
same,PLATELET COUNT,[3],1095 x10E3/uL
same,ALANINE AMINOTRANSFERASE,[3],64.33 u/L
same,ALBUMIN,[3],4.57 G/DL
same,ALKALINE PHOSPHATASE,[3],399 u/L
same,ASPARTATE AMINOTRANSFERASE,[3],93.67 u/L
same,BLOOD UREA NITROGEN,[3],16.33 mg/dL
same,CARBON DIOXIDE,[3],26 mmol/L
same,CHLORIDE,[3],107 MEQ/L
same,CHOLESTEROL,[3],64.67 mg/dL
same,CREATINE PHOSPHOKINASE,[3],723.33 u/L
same,CREATININE,[3],0.21 mg/dL
same,GLUCOSE,[3],164.33 mg/dL
same,LACTATE DEHYDROGENASE,[3],166.67 u/L
same,LIPASE,[3],9.67 u/L
same,PHOSPHORUS,[3],11.4 mg/dL
same,POTASSIUM,[3],6.41 MEQ/L
same,SODIUM,[3],146.6 MEQ/L
same,TOTAL BILIRUBIN,[3],0.2 mg/dL
same,TOTAL PROTEIN,[3],6.17 G/DL
